Data published in patent US5001155A, “β-ionone derivative as antifungal agent” (University of Kentucky Research Foundation, priority 1989, dated 1991).
≈ marks a conversion by molar mass, not a printed value.

test system: P. tabacina conidia; experiment: not given; conditions: Phytochemistry 1972, vol. 11, pp. 2055-2063; cited from earlier work

Row | Compound | inhibition of germination
1 | CC(=O)/C=C/C1=C(C)CC(OC(=O)C(C)C)CC1(C)C (stereo not drawn) [Quieson, 3-isobutyroyloxy-β-ionone, reference compound] | an inhibitor of the germination of P. tabacina conidia

test system: Peronospora tabacina sporangia; experiment: Inhibition of Sporangial Germination, Variant II (test 3.12); type: cell-based; conditions: 1% water agar, 10^6 s/ml, 18° C., 16 hours, read-out: ED50 (the source's name)
Protocol: 3.12. Variant II In another in vitro test, the substances (10^2 -10^-8 ppm) were added to 1% water agar and poured into petri dishes. After cooling, the media were inoculated with 100 μl of a suspension of sporangia (10^6 s/ml) and incubated at 18° C. during 16 hours. The germinated sporangia were counted under the microscope.

Row | Compound | IC50 [ng/mL]
2 | CCOCC(=O)O[C@@H]1CC(C)=C(/C=C/C(C)=O)C(C)(C)C1 [3(R)-ethoxyacetoxy-β-ionone] | 0.006 (≈ 0.0204 nM)
3 | COCC(=O)O[C@@H]1CC(C)=C(/C=C/C(C)=O)C(C)(C)C1 [3(R)-methoxyacetoxy-β-ionone] | 8e-05 (≈ 0.000285 nM)

The next lines start with the values.

Row | IC50 [ng/mL] | Compound
4 | 0.4 (≈ 1.44 nM) | CC(=O)/C=C/C1=C(C)CC(OC(=O)C(C)C)CC1(C)C (stereo not drawn) [Quieson, 3-isobutyroyloxy-β-ionone, reference compound]
5 | 0.05 (≈ 0.163 nM) | CCCCCC(=O)O[C@@H]1CC(C)=C(/C=C/C(C)=O)C(C)(C)C1 [3(R)-n-hexanoyloxy-β-ionone]
6 | 0.001 (≈ 0.00342 nM) | CC(=O)/C=C/C1=C(C)C[C@@H](OC(=O)C(C)(C)C)CC1(C)C [3(R)-pivaloyloxy-β-ionone]
7 | 2e-05 (≈ 7.18e-05 nM) | CCCC(=O)O[C@@H]1CC(C)=C(/C=C/C(C)=O)C(C)(C)C1 [3(R)-n-butyroyloxy-β-ionone, 3(R)-butyroyloxy-β-ionone]
